Measurements from patent publication EP4782450A1, “NOVEL SKELETAL DERIVATIVE EFFECTIVE FOR HER2 MUTATION, AND PHARMACEUTICAL COMPOSITION COMPRISING SAME” (Hanmi Pharm. Co., Ltd., priority 2023, dated 2025).

Legend:
Ba/F3 HER2 A775insYVMA = assay: Growth inhibition of Ba/F3 cells engineered to overexpress HER2 A775_G776insYVMA (CellTiter-Glo luminescence); type: cell-based; details: Mus musculus, BaF3, 72 hours, concentrations 1000 to 0.32 nM, read-out: Ba/F3 HER2^YVMA GI50 class
Procedure: (§1) Experimental Example: Growth inhibition of Ba/F3 HER2 A775insYVMA and wild-type Ba/F3 cells
(§2) In this Experimental Example, the compounds obtained in Examples 1 to 92 were evaluated for their ability to inhibit growth of cells harboring either the HER2 A775insYVMA mutation or wild-type EGFR. For this purpose, Ba/F3 cells (ATCC, USA) were genetically engineered to overexpress either HER2 A775_G776insYVMA or wild-type EGFR, and the growth of these engineered Ba/F3 cells were monitored in the presence of the compounds described in the Examples to evaluate their effects on growth inhibition.
(§3) Specifically, culture flasks of the engineered Ba/F3 cells suspended in RPMI 1640 medium supplemented with 10% fetal bovine serum (FBS) and 1% penicillin/streptomycin (Gibco BRL, USA) were placed in a cell incubator and incubated at 37°C and 5% CO2 level to allow them to reach a stable logarithmic growth phase. The cells were then harvested by centrifugation to remove the old media and placed into a 96-well plate by dividing them into 100 µL aliquots per well at a dilution of 1×10^5 cells/mL in fresh media. Each of the compounds prepared in the preceding Examples were dissolved in 99.5% (cell culture grade) dimethylsulfoxide (DMSO) to prepare a stock solution of 10 mM concentration, which were serially diluted in the culture medium to final concentrations of 1000, 200, 40, 8, 1.6 and 0.32 nM for HER2 A775insYVMA Ba/F3 cells and concentrations of 10000, 5000, 1000, 200, 40 and 8 nM for wild-type EGFR overexpressing Ba/F3 cells.
(§4) To each aliquot of cells in the 96-well plate, a 50 µL test solution comprising one of the compounds was added to result in each well a 150 µL volume of cells with a compound in a final concentration ranging from 10 µM to 0.32 nM. The Ba/F3 cells treated with the test solution were incubated for 72 hours at 37°C and 5% CO2 level and underwent a 30-minute acclimation by placing the 96-well plate carrying the cells in ambient temperature. Thereafter, to each well was added 50 µL CellTiter-Glo® Luminescent Cell Assay Reagent (CTG, Promega, USA). After allowing 10 minutes to stabilize the signal, luminescence intensity was measured using a microplate reader. The half-maximal growth inhibition concentration (GI50) was calculated from the luminescence readout of the test compounds with the difference between the initial and final cell densities for the well untreated with a compound set at 100% growth. Nonlinear regression analysis based on log[inhibitor] vs. normalized response mode of the Graph Prism software was used for calculating GI50 for each compound, which are summarized in Table 6. The calculated GI50 values are classified in Table 6 into four categories: A for GI50 values less than 100 nM, B for GI50 values more than 100 nM but less than 1,000 nM, C for GI50 values more than 1,000 nM but less than 5,000 nM, and D for GI50 values of more than 5,000 nM.

[1] = system: wild-type EGFR overexpressing Ba/F3 cells; assay: Growth inhibition of Ba/F3 cells engineered to overexpress wild-type EGFR (CellTiter-Glo luminescence); type: cell-based; details: Mus musculus, BaF3, 72 hours, concentrations 10000 to 8 nM, read-out: Ba/F3 EGFR^WT GI50 class
Procedure: as §1, §2, §3, §4

GI50 (Ba/F3 HER2 A775insYVMA) [nM]	GI50 [1] [nM]	SMILES
< 100	1000 to 5000	C=CC(=O)N(C)C/C=C/c1ncc2ncnc(Nc3ccc(Oc4ccc5c(c4)ncn5C)c(C)c3)c2n1 [Example 24, (E)-N-methyl-N-(3-(8-((3-methyl-4-((1-methyl-1H-benzo[d]imidazol-5-yl)oxy)phenyl)amino)pyrimido[5,4-d]pyrimidin-2-yl)allyl)acrylamide]
< 100	1000 to 5000	C=CC(=O)N(C)C/C=C/c1ccc2ncnc(Nc3ccc(Oc4ccc5c(c4)ncn5C)c(Cl)c3)c2n1 [Example 25, (E)-N-(3-(4-((3-chloro-4-((1-methyl-1H-benzo[d]imidazol-5-yl)oxy)phenyl)amino)pyrido[3,2-d]pyrimidin-6-yl)allyl)-N-methylacrylamide]
< 100	1000 to 5000	C=CC(=O)N(C)CC/C=C/c1ccc2ncnc(Nc3ccc(Oc4ccc5c(c4)ncn5C)c(C)c3)c2n1 [Example 26, (E)-N-methyl-N-(4-(4-((3-methyl-4-((1-methyl-1H-benzo[d]imidazol-5-yl)oxy)phenyl)amino)pyrido[3,2-d]pyrimidin-6-yl)but-4-en-1-yl)acrylamide]
100 to 1000	1000 to 5000	C=CC(=O)N1CCCC(/C=C/c2ccc3ncnc(Nc4ccc(Oc5ccc6c(c5)ncn6C)c(C)c4)c3n2)C1 (stereo not shown) [Example 27, (E)-1-(3-(2-(4-((3-methyl-4-((1-methyl-1H-benzo[d]imidazol-5-yl)oxy)phenyl)amino)pyrido[3,2-d]pyrimidin-6-yl)vinyl)piperidin-1-yl)prop-2-en-1-one]
< 100	1000 to 5000	C=CC(=O)N1CC(/C=C/c2ccc3ncnc(Nc4ccc(Oc5ccc6c(c5)ncn6C)c(C)c4)c3n2)C1 [Example 28, (E)-1-(3-(2-(4-((3-methyl-4-((1-methyl-1H-benzo[d]imidazol-5-yl)oxy)phenyl)amino)pyrido[3,2-d]pyrimidin-6-yl)vinyl)azetidin-1-yl)prop-2-en-1-one]
< 100	1000 to 5000	C=CC(=O)N1CCC(/C=C/c2ccc3ncnc(Nc4ccc(Oc5ccc6c(c5)ncn6C)c(C)c4)c3n2)C1 (stereo not shown) [Example 29, (E)-1-(3-(2-(4-((3-methyl-4-((1-methyl-1H-benzo[d]imidazol-5-yl)oxy)phenyl)amino)pyrido[3,2-d]pyrimidin-6-yl)vinyl)pyrrolidin-1-yl)prop-2-en-1-one]
100 to 1000	100 to 1000	C=CC(=O)N(C)C1(/C=C/c2ccc3ncnc(Nc4ccc(Oc5ccc6c(c5)ncn6C)c(C)c4)c3n2)CC1 [Example 30, (E)-N-methyl-N-(1-(2-(4-((3-methyl-4-((1-methyl-1H-benzo[d]imidazol-5-yl)oxy)phenyl)amino)pyrido[3,2-d]pyrimidin-6-yl)vinyl)cyclopropyl)acrylamide]
100 to 1000	1000 to 5000	C/C=C/C(=O)N(C)C/C=C/c1ccc2ncnc(Nc3ccc(Oc4ccc5c(c4)ncn5C)c(C)c3)c2n1 [Example 31, (E)-N-methyl-N-((E)-3-(4-((3-methyl-4-((1-methyl-1H-benzo[d]imidazol-5-yl)oxy)phenyl)amino)pyrido[3,2-d]pyrimidin-6-yl)allyl)but-2-enamide]
100 to 1000	> 5000	Cc1cc(Nc2ncnc3ccc(/C=C/CN(C)C(=O)/C=C/CN(C)C)nc23)ccc1Oc1ccc2c(c1)ncn2C [Example 32, (E)-4-(dimethylamino)-N-methyl-N-((E)-3-(4-((3-methyl-4-((1-methyl-1H-benzo[d]imidazol-5-yl)oxy)phenyl)amino)pyrido[3,2-d]pyrimidin-6-yl)allyl)but-2-enamide]
< 100	> 5000	C=CC(=O)NC/C=C/c1ccc2ncnc(Nc3ccc(Oc4cnc5c(c4)ncn5C)c(C)c3)c2n1 [Example 34, (E)-N-(3-(4-((3-methyl-4-((3-methyl-3H-imidazo[4,5-b]pyridin-6-yl)oxy)phenyl)amino)pyrido[3,2-d]pyrimidin-6-yl)allyl)acrylamide]
< 100	> 5000	C=CC(=O)NC/C=C/c1ccc2ncnc(Nc3ccc(Oc4ccc5c(c4)ncn5C)c(C)c3F)c2n1 [Example 35, (E)-N-(3-(4-((2-fluoro-3-methyl-4-((1-methyl-1H-benzo[d]imidazol-5-yl)oxy)phenyl)amino)pyrido[3,2-d]pyrimidin-6-yl)allyl)acrylamide]
< 100	> 5000	C=CC(=O)NC/C=C/c1ccc2ncnc(Nc3ccc(Oc4ccc5c(c4)ncn5C)c(C)c3Cl)c2n1 [Example 36, (E)-N-(3-(4-((2-chloro-3-methyl-4-((1-methyl-1H-benzo[d]imidazol-5-yl)oxy)phenyl)amino)pyrido[3,2-d]pyrimidin-6-yl)allyl)acrylamide]
100 to 1000	< 100	C=CC(=O)NC/C=C/c1ccc2ncnc(Nc3ccc(Oc4ccn5nccc5c4)c(C)c3)c2n1 [Example 37, (E)-N-(3-(4-((3-methyl-4-(pyrazolo[1,5-a]pyridin-5-yloxy)phenyl)amino)pyrido[3,2-d]pyrimidin-6-yl)allyl)acrylamide]
< 100	100 to 1000	C=CC(=O)NC/C=C/c1ccc2ncnc(Nc3ccc(Oc4ccn5ncnc5c4)c(C)c3)c2n1 [Example 38, (E)-N-(3-(4-((4-([1,2,4]triazolo[1,5-a]pyridin-7-yloxy)-3-methylphenyl)amino)pyrido[3,2-d]pyrimidin-6-yl)allyl)acrylamide]
< 100	100 to 1000	C=CC(=O)NC/C=C/c1ccc2ncnc(Nc3ccc(Oc4ccn5ccnc5c4)c(C)c3)c2n1 [Example 39, (E)-N-(3-(4-((4-(imidazo[1,2-a]pyridin-7-yloxy)-3-methylphenyl)amino)pyrido[3,2-d]pyrimidin-6-yl)allyl)acrylamide]
< 100	> 5000	Cc1cc(Nc2ncnc3ccc(/C=C/CNC(=O)/C=C/CN(C)C)nc23)ccc1Oc1ccc2c(c1)ncn2C [Example 40, (E)-4-(dimethylamino)-N-((E)-3-(4-((3-methyl-4-((1-methyl-1H-benzo[d]imidazol-5-yl)oxy)phenyl)amino)pyrido[3,2-d]pyrimidin-6-yl)allyl)but-2-enamide]
< 100	1000 to 5000	Cc1c(Oc2ccc3c(c2)ncn3C)ccc(Nc2ncnc3ccc(/C=C/CNC(=O)/C=C/CN(C)C)nc23)c1F [Example 41, (E)-4-(dimethylamino)-N-((E)-3-(4-((2-fluoro-3-methyl-4-((1-methyl-1H-benzo[d]imidazol-5-yl)oxy)phenyl)amino)pyrido[3,2-d]pyrimidin-6-yl)allyl)but-2-enamide]
< 100	1000 to 5000	C=CC(=O)N(C)C/C=C/c1ccc2ncnc(Nc3ccc(Oc4ccc5c(c4)ncn5C)c(C)c3F)c2n1 [Example 42, (E)-N-(3-(4-((2-fluoro-3-methyl-4-((1-methyl-1H-benzo[d]imidazol-5-yl)oxy)phenyl)amino)pyrido[3,2-d]pyrimidin-6-yl)allyl)-N-methylacrylamide]
< 100	1000 to 5000	C=CC(=O)N(C)C/C=C/c1ccc2ncnc(Nc3ccc(Oc4cnc5c(c4)ncn5C)c(C)c3)c2n1 [Example 43, (E)-N-methyl-N-(3-(4-((3-methyl-4-((3-methyl-3H-imidazo[4,5-b]pyridin-6-yl)oxy)phenyl)amino)pyrido[3,2-d]pyrimidin-6-yl)allyl)acrylamide]
< 100	> 5000	C=CC(=O)N1CC(/C=C/c2ccc3ncnc(Nc4cc(C)c(Oc5ccc6c(c5)ncn6C)cc4F)c3n2)C1 [Example 45]
< 100	1000 to 5000	C=CC(=O)N1CC(/C=C/c2ccc3ncnc(Nc4ccc(Oc5ccc6c(c5)ncn6C)c(C)c4F)c3n2)C1 [Example 46]

SMILES	GI50 (Ba/F3 HER2 A775insYVMA) [nM]	GI50 [1] [nM]
C=CC(=O)NC/C=C/c1ccc2ncnc(Nc3ccc(Oc4ccc5c(c4)ncn5C)c(C)c3)c2n1 [Example 33, (E)-N-(3-(4-((3-methyl-4-((1-methyl-1H-benzo[d]imidazol-5-yl)oxy)phenyl)amino)pyrido[3,2-d]pyridin-6-yl)allyl)acrylamide]	< 100	1000 to 5000
C=CC(=O)N1CC(/C=C/c2ccc3ncnc(Nc4ccc(Oc5cnc6c(c5)ncn6C)c(C)c4)c3n2)C1 [Example 44]	< 100	> 5000
